Source: patent US4241069A, “3-Methylene flavanones and 3-methylene chromanones” (Miles Laboratories, Inc., priority 1979, dated 1980)
In brackets after ≈: the same amount, converted by molar mass.

Legend:
S. aureus NRRL B2747 [1] = assay: MIC, agar incorporation method; format: cell-based, Staphylococcus aureus; conditions: Staphylococcus aureus, NRRLB2747, 32° C., 24 hours, read-out: Minimal Inhibitory Concentration
Method: (§1) The compounds of the present invention were tested for their ability to inhibit the growth of microorganisms by in vitro tests. Generally the in vitro tests involve growing representative microorganisms under conditions favorable to such growth and measuring the effectiveness of one or more compounds in inhibiting or destroying the growth of the microorganisms. The microorganisms used include representative bacteria, fungi and yeasts.
(§2) A representative selection of the test microorganisms were cultured in a nutrient broth, such as, for example, Eugon, commercially available from Difco Laboratories, Detroit, Michigan. Bacteria and Candida species were cultured for 24 hours at 32°-37° C. and fungi were cultured for approximately one week at 32° C. Inocula were prepared by suspending the growth or spores from a slant culture in sufficient sterile normal (0.9 percent) saline or Eugon broth, to yield cell or spore concentrations of 1,000,000 cells per milliliter. Anaerobic bacteria were cultured for 48-72 hours at 32°-37° C. in a thioglycollate containing medium, for example, Fluid Thioglycollate medium or NIH thioglycollate broth, commercially available from Difco Laboratories.
(§3) The compounds of the present invention were tested for activity against bacteria, yeasts and fungi by the agar incorporation method described below. MA 1347, 3-(dimethylaminomethyl)flavanone (disclosed in U.S. Pat. No. 3,753,985) was used as a comparative standard along with controls for each solvent system used.
(§4) A series of agar plates containing two-fold dilutions of each compound to be tested, ranging in concentration from 100 to 3.1 mcg/ml of agar medium was prepared. Aliquots of each concentration (100, 50, 25, 12.5, 6.2, and 3.1) prepared in N,N-dimethylformamide or 50 percent aqueous DMF were added to liquid Eugon agar at 48° C. (one part test solution to 100 parts agar). In some cases, tests with further dilutions to 0.125 mcg/ml were conducted. The agar medium, containing the 3-methylene flavanone or chromanone compound to be tested, was then dispensed into petri dishes and allowed to solidify. The solidified plates were kept overnight at room temperatures to dry the surface of the agar.
(§5) The agar plates were then inoculated with a drop of the standardized cell or spore suspension. Inoculated plates were incubated at 32° C. The inhibition end-point or minimum inhibitory concentration (MIC) shown in Table D represent the lowest concentration of test compound which inhibited the growth of the microorganism. Visual determination of growth inhibition was used. Bacteria and yeast end-points were determined after 24 hours incubation; molds, dermatophytes and anaerobes after 48-72 hours incubation. MIC values shown as ranges represent the extremes found in repeat assays. Virtually all such values were written plus or minus one dilution, the accepted variation of a two-fold dilution assay.

C. krusei VM 29B = assay: MIC, agar incorporation method; format: cell-based; conditions: Pichia kudriavzevii, VM29B; 32° C., 24 hours; read-out: Minimal Inhibitory Concentration
Method: as §1, §2, §3, §4, §5

[2] = test system: Trichophyton mentagrophytes ATCC 4807; assay: MIC, agar incorporation method; format: cell-based; conditions: ATCC4807, 32° C., 48-72 hours, read-out: Minimal Inhibitory Concentration
Method: as §1, §2, §3, §4, §5

[3] = test system: Sarcina subflava ATCC 7468; assay: MIC, agar incorporation method; format: cell-based; conditions: ATCC7468, 32° C., 24 hours, read-out: Minimal Inhibitory Concentration
Method: as §1, §2, §3, §4, §5

[4] = test system: Pseudomonas aeruginosa ATCC 14502; assay: MIC, agar incorporation method; format: cell-based; conditions: ATCC14502, 32° C., 24 hours, read-out: Minimal Inhibitory Concentration
Method: as §1, §2, §3, §4, §5

C. albicans NRRL Y-477 = assay: MIC, agar incorporation method; format: cell-based; conditions: Candida albicans, NRRLY477, 32° C., 24 hours, read-out: Minimal Inhibitory Concentration
Method: as §1, §2, §3, §4, §5

[5] = test system: Streptococcus faecalis ATCC 10541; assay: MIC, agar incorporation method; format: cell-based; conditions: Enterococcus faecalis, ATCC10541; 32° C., 24 hours; read-out: Minimal Inhibitory Concentration
Method: as §1, §2, §3, §4, §5

C. guillermondii VM 42 = assay: MIC, agar incorporation method; format: cell-based; conditions: 32° C., 24 hours; read-out: Minimal Inhibitory Concentration
Method: as §1, §2, §3, §4, §5

[6] = test system: Proteus vulgaris NRRL B123; assay: MIC, agar incorporation method; format: cell-based; conditions: NRRLB123, 32° C., 24 hours, read-out: Minimal Inhibitory Concentration
Method: as §1, §2, §3, §4, §5

A. fumigatus NRRL 163 = assay: MIC, agar incorporation method; format: cell-based; conditions: Aspergillus fumigatus, NRRL163, NRRL 163; 32° C., 48-72 hours; read-out: Minimal Inhibitory Concentration
Method: as §1, §2, §3, §4, §5

[7] = test system: Staphylococcus aureus ATCC 6538; assay: MIC, agar incorporation method; format: cell-based; conditions: Staphylococcus aureus, ATCC6538; S. aureus ATCC 6538; 32° C., 24 hours; read-out: Minimal Inhibitory Concentration
Method: as §1, §2, §3, §4, §5

T. mentagrophytes CDC = assay: MIC, agar incorporation method; format: cell-based; conditions: Trichophyton mentagrophytes, 32° C., 48-72 hours, read-out: Minimal Inhibitory Concentration
Method: as §1, §2, §3, §4, §5

C. tropicalis NRRL Y1410 = assay: MIC, agar incorporation method; format: cell-based; conditions: Candida tropicalis, NRRLY1410; 32° C., 24 hours; read-out: Minimal Inhibitory Concentration
Method: as §1, §2, §3, §4, §5

T. mentagrophytes TM-2 = assay: MIC, agar incorporation method; format: cell-based; conditions: Trichophyton mentagrophytes, TM2, 32° C., 48-72 hours, read-out: Minimal Inhibitory Concentration
Method: as §1, §2, §3, §4, §5

T. rubrum ATCC 10218 = assay: MIC, agar incorporation method; format: cell-based; conditions: Trichophyton rubrum, ATCC10218; 32° C., 48-72 hours; read-out: Minimal Inhibitory Concentration
Method: as §1, §2, §3, §4, §5

A. fumigatus NRRL 165 = assay: MIC, agar incorporation method; format: cell-based; conditions: Aspergillus fumigatus, NRRL165, 32° C., 48-72 hours, read-out: Minimal Inhibitory Concentration
Method: as §1, §2, §3, §4, §5

[8] = test system: Candida albicans ATCC 10231; assay: MIC, agar incorporation method; format: cell-based; conditions: ATCC10231, C. albicans ATCC 10231, 32° C., 24 hours, read-out: Minimal Inhibitory Concentration
Method: as §1, §2, §3, §4, §5

[9] = test system: Microsporum gypseum ATCC 14683; assay: MIC, agar incorporation method; format: cell-based; conditions: Nannizzia gypsea, ATCC14683, 32° C., 48-72 hours; read-out: Minimal Inhibitory Concentration
Method: as §1, §2, §3, §4, §5

[10] = test system: Escherichia coli ATCC 8739; assay: MIC, agar incorporation method; format: cell-based; conditions: ATCC8739, 32° C., 24 hours, read-out: Minimal Inhibitory Concentration
Method: as §1, §2, §3, §4, §5

[11] = test system: Aspergillus niger ATCC 16404; assay: MIC, agar incorporation method; format: cell-based; conditions: ATCC16404, 32° C., 48-72 hours, read-out: Minimal Inhibitory Concentration
Method: as §1, §2, §3, §4, §5

[12] = test system: Propionobacterium acnes ATCC 6919; assay: MIC, agar incorporation method, anaerobic; format: cell-based; conditions: 48 hours at 35° C., GasPak Anaerobic Jar, read-out: Minimal Inhibitory Concentration
Method: as §1, §2, §3, §4, §5
(§6) *Anaerobic: 48 hours incubation at 35° C. GasPak Anaerobic Jar

[13] = test system: Clostridium acetobutylicum ATCC 824; assay: MIC, agar incorporation method, anaerobic; format: cell-based; conditions: ATCC824, 48 h, 48 hours at 35° C., GasPak Anaerobic Jar, read-out: Minimal Inhibitory Concentration
Method: as §1, §2, §3, §4, §5, §6

T. tonsurans ATCC 10217 = assay: MIC, agar incorporation method; format: cell-based; conditions: Trichophyton tonsurans, ATCC10217; 32° C., 48-72 hours; read-out: Minimal Inhibitory Concentration
Method: as §1, §2, §3, §4, §5

[14] = test system: Clostridium sporogenes ATCC 11437; assay: MIC, agar incorporation method, anaerobic; format: cell-based; conditions: ATCC11437, 48 hours at 35° C., GasPak Anaerobic Jar, read-out: Minimal Inhibitory Concentration
Method: as §1, §2, §3, §4, §5, §6

[15] = test system: Bacteriodides fragilis ATCC 8482; assay: MIC, agar incorporation method, anaerobic; format: cell-based; conditions: 48 hours at 35° C., GasPak Anaerobic Jar, read-out: Minimal Inhibitory Concentration
Method: as §1, §2, §3, §4, §5, §6

S. aureus NRRL B2747 [16] = assay: MIC, agar incorporation method, anaerobic; format: cell-based; conditions: Staphylococcus aureus, NRRLB2747, 48 hours at 35° C., GasPak Anaerobic Jar, read-out: Minimal Inhibitory Concentration
Method: as §1, §2, §3, §4, §5, §6

| Compound | MIC (S. aureus NRRL B2747 [1]) [mg/L] | MIC (C. krusei VM 29B) [mg/L] | MIC [2] [mg/L] | MIC [3] [mg/L] | MIC [4] [mg/L] | MIC (C. albicans NRRL Y-477) [mg/L] | MIC [5] [mg/L] | MIC (C. guillermondii VM 42) [mg/L] | MIC (A. fumigatus NRRL 163) [mg/L] | MIC [7] [mg/L] | MIC (T. mentagrophytes CDC) [mg/L] | MIC (C. tropicalis NRRL Y1410) [mg/L] | MIC (T. mentagrophytes TM-2) [mg/L] | MIC (T. rubrum ATCC 10218) [mg/L] | MIC [8] [mg/L] | MIC [9] [mg/L] | MIC [10] [mg/L] | MIC [11] [mg/L] | MIC [12] [mg/L] | other results |
| --- | --- | --- | --- | --- | --- | --- | --- | --- | --- | --- | --- | --- | --- | --- | --- | --- | --- | --- | --- | --- |
| C=C1C(=O)c2ccccc2OC1c1ccc(Cl)cc1 (stereo not drawn) [Ex. 3, 4'-chloro-3-methylene flavanone] | 3.1 (≈ 11.5 µM) | 12.5 (≈ 46.2 µM) | 6.2 (≈ 22.9 µM) | 6.2 (≈ 22.9 µM) | > 100 | 12.5 (≈ 46.2 µM) | 25 (≈ 92.3 µM) | 25 (≈ 92.3 µM) | 6.2 (≈ 22.9 µM) | ≤ 3.1 | 6.2 (≈ 22.9 µM) | 25 (≈ 92.3 µM) | 6.2 (≈ 22.9 µM) | ≤ 3.1 | 12.5 (≈ 46.2 µM) | 6.2 (≈ 22.9 µM) | > 100 | 25 (≈ 92.3 µM) | ≤ 100 | MIC [6]: > 100 mg/L; MIC (A. fumigatus NRRL 165): 50 mg/L (≈ 185 µM); MIC [13]: ≤ 100 mg/L |
| C=C1C(=O)c2ccccc2OC1c1ccc(Cl)cc1Cl (stereo not drawn) [Ex. 4, 2',4'-dichloro-3-methylene flavanone] | 1.56 (≈ 5.11 µM) | 25 to 50 (≈ 81.9 to 164 µM) | 12.5 (≈ 41 µM) | 3.1 (≈ 10.2 µM) | > 100 | 25 (≈ 81.9 µM) | 25 to 50 (≈ 81.9 to 164 µM) | 50 (≈ 164 µM) | 50 (≈ 164 µM) | 1.56 (≈ 5.11 µM) | 12.5 to 25 (≈ 41 to 81.9 µM) | 50 (≈ 164 µM) | 12.5 to 25 (≈ 41 to 81.9 µM) | 12.5 (≈ 41 µM) | 25 (≈ 81.9 µM) | 6.2 to 12.5 (≈ 20.3 to 41 µM) | > 100 | 100 (≈ 328 µM) | 3.1 (≈ 10.2 µM) | MIC (T. tonsurans ATCC 10217): 6.2 mg/L (≈ 20.3 µM); MIC [14]: ≤ 0.78 mg/L; MIC [15]: 3.1 mg/L (≈ 10.2 µM); MIC (S. aureus NRRL B2747 [16]): 6.2 mg/L (≈ 20.3 µM) |
